System: HLA-A*24
Assay: MHC binding assay, UV-ligand exchange with beta2m ELISA, HLA-A*24
Design: species or system human
Conditions: binding to HLA-A*24, UV-ligand exchange, β2m ELISA
Text: Candidate peptides for T cell based therapies according to the present invention were further tested for their MHC binding capacity (affinity). The individual peptide-MHC complexes were produced by UV-ligand exchange, where a UV-sensitive peptide is cleaved upon UV-irradiation, and exchanged with the peptide of interest as analyzed. Only peptide candidates that can effectively bind and stabilize the peptide-receptive MHC molecules prevent dissociation of the MHC complexes. To determine the yield of the exchange reaction, an ELISA was performed based on the detection of the light chain (β2m) of stabilized MHC complexes. The assay was performed as generally described in Rodenko et al. (Rodenko et al., 2006).
96 well MAXISorp plates (NUNC) were coated over night with 2 ug/ml streptavidin in PBS at room temperature, washed 4× and blocked for 1 h at 37° C. in 2% BSA containing blocking buffer. […] Peptide-MHC monomers of the UV-exchange reaction were diluted 100 fold in blocking buffer. Samples were incubated for 1 h at 37° C., washed four times, incubated with 2 ug/ml HRP conjugated anti-β2m for 1 h at 37° C., washed again and detected with TMB solution that is stopped with […]. Absorption was measured at 450 nm. Candidate peptides that show a high exchange yield (preferably higher than 50%, most preferred higher than 75%) are generally preferred for a generation and production of antibodies or fragments thereof, and/or T cell receptors or fragments thereof, as they show sufficient avidity to the MHC molecules and prevent dissociation of the MHC complexes.

Row | Substance | Peptide exchange (MHC class I binding score, peptide exchange yield)
1 | 97 (TYTFLKETF; listed as Homo sapiens) [compound 97] | ++++ (>=75% = ++++)
2 | 99 (QYILAVPVL; listed as Homo sapiens) [compound 99] | ++++ (>=75% = ++++)
3 | 109 (LFITGGQFF; listed as Homo sapiens) [compound 109] | ++++ (>=75% = ++++)
4 | 114 (QYLDGTWSL; listed as Homo sapiens) [compound 114] | ++++ (>=75% = ++++)
5 | 116 (AYVIAVHLF; listed as Homo sapiens) [compound 116] | ++++ (>=75% = ++++)
6 | 120 (GYIEHFSLW; listed as Homo sapiens) [compound 120] | ++++ (>=75% = ++++)
7 | 124 (TYKDYVDLF; listed as Homo sapiens) [compound 124] | + (<20% = +)
8 | 128 (VYPFDWQYI; listed as Homo sapiens) [compound 128] | ++++ (>=75% = ++++)
9 | 129 (KYIDYLMTW; listed as Homo sapiens) [compound 129] | ++++ (>=75% = ++++)
10 | 135 (VYEAMVPLF; listed as Homo sapiens) [compound 135] | ++++ (>=75% = ++++)
11 | 140 (RYLINSYDF; listed as Homo sapiens) [compound 140] | ++++ (>=75% = ++++)
12 | 144 (VFASLPGFLF; listed as Homo sapiens) [compound 144] | ++++ (>=75% = ++++)
13 | 148 (SYGTVSQIF; listed as Homo sapiens) [compound 148] | ++++ (>=75% = ++++)
14 | 149 (SYGTVSQI; listed as Homo sapiens) [compound 149] | ++++ (>=75% = ++++)
15 | 153 (VYVPFGGKSMITF; listed as Homo sapiens) [compound 153] | ++++ (>=75% = ++++)
16 | 154 (VYGVPTPHF; listed as Homo sapiens) [compound 154] | ++++ (>=75% = ++++)
17 | 155 (IYKWITDNF; listed as Homo sapiens) [compound 155] | ++++ (>=75% = ++++)
18 | 170 (QYPFHVPLL; listed as Homo sapiens) [compound 170] | ++++ (>=75% = ++++)
19 | 173 (QYLEKYYNL; listed as Homo sapiens) [compound 173] | ++++ (>=75% = ++++)

Row | Substance | Peptide exchange (MHC class I binding score, peptide exchange yield)
20 | 182 (AYAQLGYLLF; listed as Homo sapiens) [compound 182] | ++++ (>=75% = ++++)
21 | 184 (IYSVGAFENF; listed as Homo sapiens) [compound 184] | ++++ (>=75% = ++++)
22 | 185 (QYLVHVNDL; listed as Homo sapiens) [compound 185] | ++++ (>=75% = ++++)
23 | 187 (AYAANVHYL; listed as Homo sapiens) [compound 187] | ++++ (>=75% = ++++)
24 | 196 (GYIRGSWQF; listed as Homo sapiens) [compound 196] | ++++ (>=75% = ++++)
25 | 197 (IFTDIFHYL; listed as Homo sapiens) [compound 197] | ++++ (>=75% = ++++)
26 | 206 (NYLDVATFL; listed as Homo sapiens) [compound 206] | ++++ (>=75% = ++++)
27 | 208 (TYLEKIDGF; listed as Homo sapiens) [compound 208] | ++++ (>=75% = ++++)
28 | 209 (AFIETPIPLF; listed as Homo sapiens) [compound 209] | ++++ (>=75% = ++++)
29 | 210 (IYAGVGEFSF; listed as Homo sapiens) [compound 210] | ++++ (>=75% = ++++)
30 | 211 (VFKSEGAYF; listed as Homo sapiens) [compound 211] | ++++ (>=75% = ++++)
31 | 217 (IYISNSIYF; listed as Homo sapiens) [compound 217] | ++++ (>=75% = ++++)
32 | 220 (SYSEIKDFL; listed as Homo sapiens) [compound 220] | ++++ (>=75% = ++++)
33 | 221 (KYIGNLDLL; listed as Homo sapiens) [compound 221] | ++++ (>=75% = ++++)
34 | 223 (TFITQSPLL; listed as Homo sapiens) [compound 223] | ++++ (>=75% = ++++)
35 | 231 (AFADVSVKF; listed as Homo sapiens) [compound 231] | ++++ (>=75% = ++++)
36 | 248 (AFPTFSVQL; listed as Homo sapiens) [compound 248] | ++++ (>=75% = ++++)
37 | 249 (RYHPTTCTI; listed as Homo sapiens) [compound 249] | ++++ (>=75% = ++++)
38 | 252 (AFGQETNVPLNNF; listed as Homo sapiens) [compound 252] | ++++ (>=75% = ++++)

Row | Substance | Peptide exchange (MHC class I binding score, peptide exchange yield)
39 | 260 (VYMNVMTRL; listed as Homo sapiens) [compound 260] | ++++ (>=75% = ++++)
40 | 261 (GYIKLINFI; listed as Homo sapiens) [compound 261] | ++++ (>=75% = ++++)
41 | 262 (VYSSQFETI; listed as Homo sapiens) [compound 262] | ++++ (>=75% = ++++)
42 | 264 (LYTETRLQF; listed as Homo sapiens) [compound 264] | ++++ (>=75% = ++++)
43 | 265 (SYLNEAFSF; listed as Homo sapiens) [compound 265] | ++++ (>=75% = ++++)
44 | 271 (RFLMKSYSF; listed as Homo sapiens) [compound 271] | ++++ (>=75% = ++++)
45 | 272 (RYVFPLPYL; listed as Homo sapiens) [compound 272] | ++++ (>=75% = ++++)
46 | 274 (KQLDIANYELF; listed as Homo sapiens) [compound 274] | ++++ (>=75% = ++++)
47 | 275 (KYGTLDVTF; listed as Homo sapiens) [compound 275] | ++++ (>=75% = ++++)
48 | 276 (QYLDVLHAL; listed as Homo sapiens) [compound 276] | ++++ (>=75% = ++++)
49 | 280 (TYNPNLQDKL; listed as Homo sapiens) [compound 280] | ++++ (>=75% = ++++)
50 | 286 (SYGTILSHI; listed as Homo sapiens) [compound 286] | ++++ (>=75% = ++++)
51 | 289 (FFHEGQYVF; listed as Homo sapiens) [compound 289] | ++++ (>=75% = ++++)
52 | 290 (KYGDFKLLEF; listed as Homo sapiens) [compound 290] | ++++ (>=75% = ++++)
53 | 292 (FYPQIINTF; listed as Homo sapiens) [compound 292] | ++++ (>=75% = ++++)
54 | 293 (VYPHFSTTNLI; listed as Homo sapiens) [compound 293] | ++++ (>=75% = ++++)
55 | 296 (SYQVIFQHF; listed as Homo sapiens) [compound 296] | ++++ (>=75% = ++++)
56 | 297 (TYIDTRTVF; listed as Homo sapiens) [compound 297] | ++++ (>=75% = ++++)
57 | 298 (AYKSEVVYF; listed as Homo sapiens) [compound 298] | ++++ (>=75% = ++++)
